Columns and labels:
[1] = molecular target: EGFR (Homo sapiens, UniProt P00533); assay: In vitro enzymatic activity assay; format: biochemical; settings: read-out: EGFR inhibition%, inhibition percentage at 1.0 μM
[2] = hypoxia vs normoxia; cited from earlier work

Chain of EGFR (P00533 25-1210): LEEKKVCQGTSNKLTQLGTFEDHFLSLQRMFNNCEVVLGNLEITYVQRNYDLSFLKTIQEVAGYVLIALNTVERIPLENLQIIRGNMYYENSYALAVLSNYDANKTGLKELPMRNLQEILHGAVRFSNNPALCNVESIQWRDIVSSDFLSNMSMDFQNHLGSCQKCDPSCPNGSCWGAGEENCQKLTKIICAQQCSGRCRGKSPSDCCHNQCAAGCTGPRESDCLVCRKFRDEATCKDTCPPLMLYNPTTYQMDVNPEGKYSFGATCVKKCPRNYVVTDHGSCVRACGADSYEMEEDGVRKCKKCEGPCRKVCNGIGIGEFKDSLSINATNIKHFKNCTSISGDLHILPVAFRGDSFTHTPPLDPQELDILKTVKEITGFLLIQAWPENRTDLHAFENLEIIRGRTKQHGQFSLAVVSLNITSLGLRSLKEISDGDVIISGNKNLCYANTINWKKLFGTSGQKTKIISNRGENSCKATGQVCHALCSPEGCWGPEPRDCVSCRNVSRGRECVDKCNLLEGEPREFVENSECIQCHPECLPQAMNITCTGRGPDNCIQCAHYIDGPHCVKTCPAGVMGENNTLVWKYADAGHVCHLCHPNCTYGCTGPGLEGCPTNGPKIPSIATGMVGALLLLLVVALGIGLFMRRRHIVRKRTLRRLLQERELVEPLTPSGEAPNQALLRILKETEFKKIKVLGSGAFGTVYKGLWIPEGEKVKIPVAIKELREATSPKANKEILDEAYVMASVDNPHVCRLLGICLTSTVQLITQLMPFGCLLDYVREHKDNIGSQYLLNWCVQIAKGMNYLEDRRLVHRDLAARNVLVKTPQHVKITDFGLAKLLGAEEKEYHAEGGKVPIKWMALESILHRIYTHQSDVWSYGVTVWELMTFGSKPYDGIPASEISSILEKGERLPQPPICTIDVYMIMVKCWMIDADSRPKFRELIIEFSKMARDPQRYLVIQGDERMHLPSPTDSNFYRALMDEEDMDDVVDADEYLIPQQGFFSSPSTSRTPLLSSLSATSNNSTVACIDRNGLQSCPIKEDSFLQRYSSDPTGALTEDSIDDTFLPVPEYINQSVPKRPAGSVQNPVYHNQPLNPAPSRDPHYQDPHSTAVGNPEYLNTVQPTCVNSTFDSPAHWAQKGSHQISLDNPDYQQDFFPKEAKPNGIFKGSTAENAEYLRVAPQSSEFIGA

Structure (SMILES) | inhibition at 1 µM [1] [%] | fold more effective in carcinoma hypoxia than in normoxia [2] [fold]
COc1cc2c(Nc3ccc(OCCn4ccnc4[N+](=O)[O-])cc3)ncnc2cc1OCCCN1CCOCC1 [Compound 16d, 6-Methoxy-7-(3-morpholinopropoxy)-N-(4-(2-(2-nitro-1H-imidazol-1-yl)ethoxy)phenyl)quinazolin-4-amine] | < 50 | 
COCCOc1cc2ncnc(Nc3ccc(OCCn4ccnc4[N+](=O)[O-])cc3)c2cc1OCCOC [Compound 16h, 6,7-Bis(2-methoxyethoxy)-N-(4-(2-(2-nitro-1H-imidazol-1-yl)ethoxy)phenyl)quinazolin-4-amine] | < 50 | 
COc1cc2ncnc(Nc3ccc(OCCn4ccnc4[N+](=O)[O-])cc3)c2cc1OCCCN1CCOCC1 [Compound 16l, 7-Methoxy-6-(3-morpholinopropoxy)-N-(4-(2-(2-nitro-1H-imidazol-1-yl)ethoxy)phenyl)quinazolin-4-amine] | < 50 | 
Cn1c(COP(=O)(NCCBr)NCCBr)cnc1[N+](=O)[O-] [TH-302] |  | 270
